In general, IC50 refers to the concentration that gives 50% inhibition.

In brackets after ≈: the same amount, converted by molar mass.

In the assay the target is Hyalomma scupense acetylcholinesterase (AChE). Kind of assay: Ellman assay, absorbance at […] nm. The class given is biochemical. To be noted: acetylthiocholine iodide, DTNB, 10 min, 37 °C. Background: Ellman's reagent forms a yellow product with free thiols.

For `C=CCc1ccc(O)c(OC)c1` [eugenol], the “IC50” value is 178 µg/mL (≈ 1080 µM). For `COc1ccc2c3c1O[C@H]1C[C@@H](O)C=C[C@@]31CCN(C)C2` [galantamine], the half-maximal inhibitory concentration (IC50) (positive control) turned out to be 97 µg/mL (≈ 338 µM).

The values above are taken from article PMC10432207 (Heliyon, 2023).
